Measured values as given in BindingDB's records for doi:10.7270/Q2CF9NKD (Burnham Center For Chemical Genomics, 2010).

Biological target: Intestinal-type alkaline phosphatase (Homo sapiens, UniProt P09923)
Assay: human IAP activators, dose response, biochemical, luminescent, uHTS hits, set 2 (AID 488817)

Chain of Intestinal-type alkaline phosphatase (P09923 whole entry): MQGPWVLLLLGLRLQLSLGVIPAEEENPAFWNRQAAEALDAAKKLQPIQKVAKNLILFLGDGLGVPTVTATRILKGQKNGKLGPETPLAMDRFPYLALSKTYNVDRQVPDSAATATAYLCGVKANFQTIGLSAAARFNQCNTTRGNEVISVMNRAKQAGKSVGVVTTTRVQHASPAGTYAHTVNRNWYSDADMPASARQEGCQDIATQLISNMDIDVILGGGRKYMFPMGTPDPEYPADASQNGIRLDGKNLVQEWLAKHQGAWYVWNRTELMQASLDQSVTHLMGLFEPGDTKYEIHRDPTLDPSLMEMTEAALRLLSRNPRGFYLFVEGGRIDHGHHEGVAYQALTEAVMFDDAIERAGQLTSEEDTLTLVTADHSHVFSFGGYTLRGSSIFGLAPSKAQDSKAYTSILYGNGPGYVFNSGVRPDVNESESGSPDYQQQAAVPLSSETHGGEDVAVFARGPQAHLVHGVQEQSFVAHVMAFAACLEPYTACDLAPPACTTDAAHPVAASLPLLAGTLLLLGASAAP

| Structure (SMILES) | EC50 |
| --- | --- |
| Cc1c(C(=O)NN=Cc2ccc(O)cc2O)[nH][nH]c1=O | 11.3 µM |
| Cc1cc(Br)ccc1SCC(=O)OCC(=O)C(C#N)c1nc2ccccc2[nH]1 (stereo not given) [2-[(4-bromo-2-methylphenyl)thio]acetic acid [3-cyano-3-(1,3-dihydrobenzimidazol-2-ylidene)-2-oxopropyl] ester] | 27.5 µM |
| C=c1[nH]n(-c2nc3ccccc3[nH]2)c(=O)c1=CN(C)C [(4E)-2-(1H-benzimidazol-2-yl)-4-(dimethylaminomethylidene)-5-methyl-pyrazol-3-one] | 23.2 µM |
| CCc1ccc(CN=Nc2ncnc3nc[nH]c23)cc1 [MLS000419199] | 12.5 µM |
| Cn1c(C(C#N)C(=O)c2ccc(Br)s2)nc2ccccc21 (stereo not given) [MLS001167394] | 60 µM |
| COc1cccc(C=NNC(=O)c2[nH][nH]c(=O)c2C)c1O [N'-[(E)-(5-methoxy-6-oxidanylidene-cyclohexa-2,4-dien-1-ylidene)methyl]-4-methyl-5-oxidanylidene-1,4-dihydropyrazole-3-carbohydrazide] | 9.07 µM |

Further lines, results first:

| EC50 | Structure (SMILES) |
| --- | --- |
| 31 µM | O=c1c2ccccc2nc(N=NCc2c(O)ccc3ccccc23)n1O [SMR000145705] |
| 12.4 µM | O=C(Nn1c(O)csc1=S)C(=O)Nn1c(O)csc1=S [SMR000349781] |
| 8.77 µM | O=Nc1[nH]c(=O)c(CC(=O)c2ccccc2)nc1NO [SMR000539633] |
| 11.4 µM | CCOC(=O)c1c(C)[nH]c(C(=O)N/N=C/C2C=C([N+](=O)[O-])C=CC2=O)c1C (stereo not given) [ethyl 2,4-dimethyl-5-[[[(E)-(3-nitro-6-oxocyclohexa-2,4-dien-1-ylidene)methyl]amino]carbamoyl]-1H-pyrrole-3-carboxylate] |
